According to patent EP1508334B1, “Water soluble extract from plant of solanum genus and the preparation process thereof, and pharmaceutical composition containing the water soluble extract” (G & E Herbal Biotechnology Co., Ltd., priority 2003, dated 2005):

Key:
Phoma medicaginis = details: cited from earlier work
[1] = Dissolution in water (applicant's observations); format: physicochemical; details: for direct dissolution in water: compounds purified by HPLC from the water-soluble extract; for concentration at which precipitated: in water after being first dissolved in DMSO; for dissolution in water: without DMSO pre-treatment
H441 = test: MTS tetrazolium salt cytotoxicity assay; format: cell-based, human; details: different test concentrations / various dosages, 12 hrs, Fig. 8 and Fig. 12
Text: In order to determine whether the water-soluble extract obtained from the plant of Solanum genus according to this invention has anti-cancer activity, the principal cancer cells of Hep3B, H441, and MCF-7 were used as analytic targets, in which Hep3B and H441 were purchased from American Type Culture Collection (ATCC, P.O. Box 1549, Manassas, VA 20108 USA), and MCF-7 was purchased from Food Industry Research and Development Institute (331 Shih-Pin Road, Hsinchu, 300 Taiwan R.O.C.).
Hep3B was incubated in Dulbecco's Modified Eagle's medium (DMEM), while H441 and MCF-7 were incubated in RPMI-1640, both of the media containing 10% fetal bovine serum and 40 mg/L gentamycin.
The cytotoxicity of cancer cells was determined using tetrazolium salt assay (MTS, Mosmann. T., 1983, Immmunol. Meth., 65, 55-63), which was conducted for the colorimetric determination of cell viability according to the manufacturer's procedures (CellTiter 96™ AQ, Promega, Madison, USA).
Cells were seeded at 1x10^4 cells/well in a 96-well plate and incubated in 5% CO2 incubator at 37°C for at least 16 hrs. […] Upon completion of the reaction, absorbency in each well was determined at 490 nm by using ELISA reader 312e, Bio-TEK. Each value was expressed as means ± SD from three experiments.
Cytotoxicity was determined by MTS tetrazolium salt assay disclosed in Pharmacological assay 1. […]

Tribolium castaneum = details: cited from earlier work
Biomphalaria glabrata = details: cited from earlier work
Hep3B = details: cited from earlier work
Rhizoctomia solani = details: cited from earlier work
Manduca sexta = details: cited from earlier work
Lymnaea cubensis = details: cited from earlier work
[2] = system: human PLC/PRF/5 hepatoma cells; details: cited from earlier work
TNF receptor I = details: cited from earlier work
JTC-26 = details: cited from earlier work
[3] = system: normal skin fibroblast cells; details: cited from earlier work
Trypanosoma cruzi = details: cited from earlier work

C[C@@H]1CC[C@@]2(NC1)O[C@H]1C[C@H]3[C@@H]4CC=C5C[C@@H](O[C@@H]6O[C@H](CO)[C@@H](O[C@@H]7O[C@@H](C)[C@H](O)[C@@H](O)[C@H]7O)[C@H](O)[C@H]6O[C@@H]6O[C@@H](C)[C@H](O)[C@@H](O)[C@H]6O)CC[C@]5(C)[C@H]4CC[C@]3(C)[C@H]1[C@@H]2C [solamargine]
inhibiting growth of Phoma medicaginis (Phoma medicaginis): capable of inhibiting growth
direct dissolution in water [1]: directly dissolved in water
concentration at which precipitated [1]: more than 5 mg/ml
dissolution in water [1]: could not dissolve in water
inhibiting the growth of H441 (H441): effectively inhibited
inhibiting growth of Tribolium castaneum (Tribolium castaneum): capable of inhibiting growth
inhibiting growth of Biomphalaria glabrata (Biomphalaria glabrata): capable of inhibiting growth
death of cells by apoptosis pathway (Hep3B): increases death of cells
inhibiting growth of Rhizoctomia solani (Rhizoctomia solani): capable of inhibiting growth
inhibiting growth of Manduca sexta (Manduca sexta): capable of inhibiting growth
inhibiting growth of Lymnaea cubensis (Lymnaea cubensis): capable of inhibiting growth
growth of human PLC/PRF/5 hepatoma cells [2]: inhibits the growth
gene expression of TNF receptor I (TNF receptor I): up-regulated
growth of JTC-26 (JTC-26): inhibits the growth
death of cells by apoptosis pathway [3]: increases death of cells
inhibiting growth of Trypanosoma cruzi (Trypanosoma cruzi): capable of inhibiting growth

C[C@@H]1CC[C@@]2(NC1)O[C@H]1C[C@H]3[C@@H]4CC=C5C[C@@H](O[C@@H]6O[C@H](CO)[C@H](O)[C@H](O[C@@H]7O[C@H](CO)[C@@H](O)[C@H](O)[C@H]7O)[C@H]6O[C@@H]6O[C@@H](C)[C@H](O)[C@@H](O)[C@H]6O)CC[C@]5(C)[C@H]4CC[C@]3(C)[C@H]1[C@@H]2C [solasonine]
direct dissolution in water [1]: directly dissolved in water
concentration at which precipitated [1]: more than 5 mg/ml
dissolution in water [1]: could not dissolve in water
inhibiting the growth of H441 (H441): effectively inhibited
